Format in all cases: cell-based
The target in one assay is T1, KRAS G12D (Homo sapiens, UniProt P01116, G12D).
T1 construct: AsPc-1-KRAS (G12D)-HiBit-KI cell (Pharmaron); host or cells: AsPc-1-KRAS (G12D)-HiBit-KI cells (HiBiT knock-in at the endogenous KRAS locus)
Put plainly: KRAS G12D HiBit assay. Conditions: AsPc-1-KRAS (G12D)-HiBit-KI cell, compound treatment for 24 hours; for DC50: absolute DC50. The method, boiled down: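 HiBiT luminescence, detected by adding lytic buffer, substrate and LgBiT protein, served as the KRAS G12D read-out. Compounds, serially diluted 3-fold over 10 points from 0.3 mM DMSO stock, were on cells for 24 h; percent inhibition normalized to cells given 0.1% DMSO only.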
(The HiBiT peptide binds its large partner to form an active luciferase.)

Another assay concerns the target T2, KRAS G12V (Homo sapiens, UniProt P01116, G12V).
T2 construct: SW620-KRAS (G12V)-HiBit-KI cell (Pharmaron); host or cells: SW620-KRAS (G12V)-HiBit-KI cells (HiBiT knock-in at the endogenous KRAS locus)
Put plainly: KRAS G12V HiBit assay. To be noted: SW620-KRAS (G12V)-HiBit-KI cells, compound treatment for 24 hours, class symbols. In short, it runs like this: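 Luminescence from lytic Nano-Glo HiBiT detection with LgBiT read KRAS G12V levels after 24 h compound exposure. Dilutions were 10-point, 3-fold, from a 0.3 mM DMSO stock. Degradation activity was normalised to cells given 0.1% DMSO alone.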

The next assay deals with T3, KRAS (Homo sapiens, UniProt P01116).
T3 construct: endogenous in cells; host or cells: KE39 (KRAS amplified) cells
T3 sequence (P01116 1-188 isoform P01116-2): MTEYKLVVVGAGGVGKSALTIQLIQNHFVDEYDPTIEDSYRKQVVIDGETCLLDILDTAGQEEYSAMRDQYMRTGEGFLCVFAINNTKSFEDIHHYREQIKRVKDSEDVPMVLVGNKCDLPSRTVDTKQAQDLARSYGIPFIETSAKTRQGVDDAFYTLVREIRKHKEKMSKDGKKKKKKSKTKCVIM
The experiment in a line: KRASamp MSD assay. Conditions: KE39 (KRAS amplified) cells, treated with test compounds for 24 hr, MSD readout of KRAS degradation. The method, boiled down:
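Degradation DC50 derived by curve fitting, with KRAS levels quantified by MSD electrochemiluminescence (capture/detection antibodies, recombinant WT KRAS standard). Lysates prepared from KE39 cells (KRAS amplified) exposed to test compounds for 24 hr.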

[1] abbreviates: numeric bounds given in place of class symbols.

T1 sequence (P01116 1-188 isoform P01116-2 G12D): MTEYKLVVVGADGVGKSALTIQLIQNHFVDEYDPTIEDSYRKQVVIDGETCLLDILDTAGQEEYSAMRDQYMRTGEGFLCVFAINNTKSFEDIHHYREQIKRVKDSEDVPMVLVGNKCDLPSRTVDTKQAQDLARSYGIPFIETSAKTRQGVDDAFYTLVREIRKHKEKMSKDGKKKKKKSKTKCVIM
T2 sequence (P01116 1-188 isoform P01116-2 G12V): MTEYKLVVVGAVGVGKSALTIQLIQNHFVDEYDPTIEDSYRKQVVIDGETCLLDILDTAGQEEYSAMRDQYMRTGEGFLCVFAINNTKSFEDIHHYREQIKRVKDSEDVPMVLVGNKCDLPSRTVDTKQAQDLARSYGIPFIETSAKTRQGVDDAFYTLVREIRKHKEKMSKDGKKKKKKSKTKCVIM

On to `CCc1c(F)ccc2cc(O)cc(-c3ncc4c(N5CCC[C@@](C)(O)C5)nc(OC[C@@]56CCCN5[C@H](COC(=O)N5CCC(OCCCc7cccc8c7n(C)c(=O)n8C7CCC(=O)NC7=O)CC5)CC6)nc4c3F)c12` (stereo partly drawn) [Compound 2, [(3S,8S)-8-[[7-(8-Ethyl-7-fluoro-3-hydroxy-1-naphthyl)-8-fluoro-4-[(3R)-3-hydroxy-3-methyl-1-piperidyl]pyrido[4,3-d]pyrimidin-2-yl]oxymethyl]-1,2,3,5,6,7-hexahydropyrrolizin-3-yl]methyl4-[3-[1-(2,6-dioxo-3-piperidyl)-3-methyl-2-oxo-benzimidazol-4-yl]propoxy]piperidine-1-carboxylate], for which the DC50 was below 100 nM at KRAS G12D (class symbols), below 10 nM at KRAS G12V and below 1 nM on KRAS. Further, the Dmax on KRAS G12D (class symbols) was above 50%.

Turning to `C#Cc1c(F)ccc2cc(O)cc(-c3ncc4c(N5CCC[C@@](C)(O)C5)nc(OC[C@]56CCCN5[C@@H](COC(=O)N5CCC(CN7CCC(c8ccc9c(c8)n(C)c(=O)n9C8CCC(=O)NC8=O)CC7)CC5)CC6)nc4c3F)c12` (stereo partly drawn) [Compound 126, ((3R,7aR)-7a-(((7-(8-Ethynyl-7-fluoro-3-hydroxynaphthalen-1-yl)-8-fluoro-4-((R)-3-hydroxy-3-methylpiperidin-1-yl)pyrido[4,3-d]pyrimidin-2-yl)oxy)methyl)hexahydro-1H-pyrrolizin-3-yl)methyl 4-((4-(1-(2,6-dioxopiperidin-3-yl)-3-methyl-2-oxo-2,3-dihydro-1H-benzo[d]imidazol-5-yl)piperidin-1-yl)methyl) piperidine-1-carboxylate], the DC50 at KRAS G12D (setting [1]) was above 38.3 nM; at KRAS G12V it was below 10 nM; on KRAS, below 1 nM.

Turning to `CCc1c(F)ccc2cc(O)cc(-c3ncc4c(N5CCC[C@@](C)(O)C5)nc(OC[C@@]56CCCN5[C@H](COC(=O)N5CCC7(CC5)CC(N5CC(c8ccc9c(c8)n(C)c(=O)n9C8CCC(=O)NC8=O)C5)C7)CC6)nc4c3F)c12` (stereo partly drawn) [Compound 464, ((3S,7aS)-7a-(((7-(8-ethyl-7-fluoro-3-hydroxynaphthalen-1-yl)-8-fluoro-4-((R)-3-hydroxy-3-methylpiperidin-1-yl)pyrido[4,3-d]pyrimidin-2-yl)oxy)methyl)hexahydro-1H-pyrrolizin-3-yl)methyl 2-(3-(1-(2,6-dioxopiperidin-3-yl)-3-methyl-2-oxo-2,3-dihydro-1H-benzo[d]imidazol-5-yl)azetidin-1-yl)-7-azaspiro[3.5]nonane-7-carboxylate], the DC50 is below 100 nM at KRAS G12D (class symbols), below 10 nM at KRAS G12V and 1 to 10 nM at KRAS.

As for `CCc1c(F)ccc2cc(O)cc(-c3ncc4c(N5CCC[C@@](C)(O)C5)nc(OC[C@@]56CCCN5[C@H](COC(=O)N5CCC(C)(CN7CCC(c8ccc9c(c8)n(C)c(=O)n9C8CCC(=O)NC8=O)CC7)CC5)CC6)nc4c3F)c12` (stereo partly drawn) [Compound 157, ((3S,7aS)-7a-(((7-(8-Ethyl-7-fluoro-3-hydroxynaphthalen-1-yl)-8-fluoro-4-((R)-3-hydroxy-3-methylpiperidin-1-yl)pyrido[4,3-d]pyrimidin-2-yl)oxy)methyl)hexahydro-1H-pyrrolizin-3-yl)methyl 4-((4-(1-(2,6-dioxopiperidin-3-yl)-3-methyl-2-oxo-2,3-dihydro-1H-benzo[d]imidazol-5-yl)piperidin-1-yl)methyl)-4-methylpiperidine-1-carboxylate], the DC50 is above 100 nM at KRAS G12D (setting [1]), below 10 nM at KRAS G12V and below 1 nM on KRAS.

As for `Cn1c(=O)n(C2CCC(=O)NC2=O)c2ccc(C3CCN(CC4CCN(C(=O)OC[C@@H]5CC[C@]6(COc7nc(N8CCC[C@@](C)(O)C8)c8cnc(-c9cc(O)cc%10ccc(F)c(Cl)c9%10)c(F)c8n7)CCCN56)CC4)CC3)cc21` (stereo partly drawn) [Compound 409, ((3S,7aS)-7a-(((7-(8-chloro-7-fluoro-3-hydroxynaphthalen-1-yl)-8-fluoro-4-((R)-3-hydroxy-3-methylpiperidin-1-yl)pyrido[4,3-d]pyrimidin-2-yl)oxy)methyl)hexahydro-1H-pyrrolizin-3-yl)methyl 4-((4-(1-(2,6-dioxopiperidin-3-yl)-3-methyl-2-oxo-2,3-dihydro-1H-benzo[d]imidazol-5-yl)piperidin-1-yl)methyl)piperidine-1-carboxylate], the results for the DC50 at KRAS G12D (class symbols), on KRAS G12V and at KRAS were below 100 nM, below 10 nM and below 1 nM, respectively.

As for `CCc1c(F)ccc2cc(O)cc(-c3ncc4c(N5CCC[C@@](C)(O)C5)nc(OC[C@@]56CCCN5[C@H](COC(=O)N5CCC7(CCC(CN8CCC(c9ccc%10c(c9)n(C)c(=O)n%10C9CCC(=O)NC9=O)CC8)CC7)CC5)CC6)nc4c3F)c12` (stereo partly drawn) [Compound 466, ((3S,7aS)-7a-(((7-(8-ethyl-7-fluoro-3-hydroxynaphthalen-1-yl)-8-fluoro-4-((R)-3-hydroxy-3-methylpiperidin-1-yl)pyrido[4,3-d]pyrimidin-2-yl)oxy)methyl)hexahydro-1H-pyrrolizin-3-yl)methyl 9-((4-(1-(2,6-dioxopiperidin-3-yl)-3-methyl-2-oxo-2,3-dihydro-1H-benzo[d]imidazol-5-yl)piperidin-1-yl)methyl)-3-azaspiro[5.5]undecane-3-carboxylate], the results for the DC50 at KRAS G12D (class symbols), on KRAS G12V and on KRAS were below 100 nM, below 10 nM and below 1 nM, respectively.

In the case of `CCc1c(F)ccc2cc(O)cc(-c3ncc4c(N5CCC[C@@](C)(O)C5)nc(OC[C@]56CCCN5[C@@H](COC(=O)N5CCC(CN7CCC(c8cc9c(cc8F)n(C8CCC(=O)NC8=O)c(=O)n9C)CC7)CC5)CC6)nc4c3F)c12` (stereo partly drawn) [Compound 425, ((3R,7aR)-7a-(((7-(8-ethyl-7-fluoro-3-hydroxynaphthalen-1-yl)-8-fluoro-4-((R)-3-hydroxy-3-methylpiperidin-1-yl)pyrido[4,3-d]pyrimidin-2-yl)oxy)methyl)hexahydro-1H-pyrrolizin-3-yl)methyl 4-((4-(1-(2,6-dioxopiperidin-3-yl)-6-fluoro-3-methyl-2-oxo-2,3-dihydro-1H-benzo[d]imidazol-5-yl)piperidin-1-yl)methyl)piperidine-1-carboxylate], the results for the DC50 on KRAS G12D (class symbols), at KRAS G12V and on KRAS were below 100 nM, below 10 nM and below 1 nM, respectively.

In the case of `CCc1c(F)ccc2cc(O)cc(-c3ncc4c(N5CCC[C@@](C)(O)C5)nc(OC[C@@]56CCCN5[C@H](CN5CCC(CN7CCC(c8ccc9c(c8)n(C)c(=O)n9C8CCC(=O)NC8=O)CC7)CC5)CC6)nc4c3F)c12` (stereo partly drawn) [Compound 402, 3-(5-(1-((1-(((35,7aS)-7a-(((7-(8-Ethyl-7-fluoro-3-hydroxynaphthalen-1-yl)-8-fluoro-4-((R)-3-hydroxy-3-methylpiperidin-1-yl)pyrido[4,3-d]pyrimidin-2-yl)oxy)methyl)hexahydro-1H-pyrrolizin-3-yl)methyl)piperidin-4-yl)methyl)piperidin-4-yl)-3-methyl-2-oxo-2,3-dihydro-1H-benzo[d]imidazol-1-yl) piperidine-2,6-dione], the results for the DC50 at KRAS G12D (class symbols), on KRAS G12V and at KRAS were below 100 nM, 10 to 100 nM and 1 to 10 nM, respectively.

The record behind these values is patent publication US12599672B2, “KRAS proteolysis targeting chimeras” (PAQ Therapeutics Inc., priority 2023, dated 2026).
